Laboratory results reported in patent US10932472B2, “Coffee extract and its agrochemical use against plant pathogens” (KAMAD KNOWLEDGE SOLUTIONS SL, priority 2013, dated 2021).

Legend:
Conditions in all cases: in vitro conditions
[1] = tested on: coffee leaf rust uredospores; test: In vitro germination of coffee leaf rust uredospores (laboratory tests 2013); format: cell-based, Hemileia vastarix
Protocol: A laboratory methodology to understand the mode of action of PA1 (1%) was developed. The efficacy was performed using coffee leaf rust uredospores, collected in the field.

Botrytis cinerea = test: In vitro inhibition of mycelial growth on amended PDA media; format: cell-based
Protocol: (§1) Additionally, an in vitro efficacy test was performed in order to determine the effect of PA5 against other Phytopathogens. Each pathogen strain was exposed to 0.5 and 2 cc/l, amended to PDA media. The inhibition percentage was evaluated against the control during 7 days.

Collectotrichum sp = test: as above; format: cell-based
Protocol: as §1

Phytophthora capcisi = test: as above; format: cell-based
Protocol: as §1

`O=C(O)c1ccc(O)c(O)c1` [PA, 3,4-dihydroxybenzoic acid] was tested, and the “concentration with direct fungicide action on uredospores germination” value [1] was 0.25 mg/mL, the growth inhibition (Botrytis cinerea) was “inhibits the growth” and the growth inhibition (Collectotrichum sp) was “inhibits the growth”. The growth inhibition (Phytophthora capcisi) was “inhibits the growth”.
